From patent publication EP2292225A1 (priority 1997, dated 1998)

How the values were obtained:
[1] = tested on: vascular smooth muscle cells; assay type: in vivo, pig; conditions: 4 days post-trauma
[2] = Biodistribution after i.p. injection (HPLC); assay type: in vivo, mice
Description: Biodistribution of Cytochalasin B. To determine the biodistribution of cytochalasin B, mice were injected (i.p.) with 50 mg/kg cytochalasin B. Control mice were injected with DMSO/Tween 20/carboxymethyl cellulose ("vehicle"). The mice were sacrificed at 3, 12, 24 and 72 hours after cytochalasin B or vehicle administration. Organs were removed, homogenized, extracted and the amount of cytochalasin B in tissues quantitated by HPLC. About 75% of the cytochalasin B remained in the peritoneal cavity or at the injection site.

[3] = 7 day intravenous toxicity study; assay type: in vivo, rats; conditions: 10 µg/ml four times a day for 7 days (800 µg/kg daily)
Description: To determine the metabolism of ^3H-cytochalasin B in human blood, ^3H-cytochalasin B (8 µg/ml) was dissolved in saline; 1:1 dilution of saline and human plasma; or 1:1 dilution of saline and human whole blood. […] Toxicity Studies. To determine the toxicity of cytochalasin B, rats (4 male and 4 female) were injected with 10 µg/ml cytochalasin B four times a day for 7 days (Table 11). Data regarding body weight changes, food consumption, food efficiency, hematology parameters, coagulation parameters, serum chemistry parameters, and gross necropsy findings were collected. […] There were no gross or microscopic changes detected in the heart to account for the elevation. Thus, daily administration of cytochalasin B to rats at a dose of 800 µg/kg (for a total injected dose of 5600 µg/kg) may have an effect on heart weight of female (but not male) rats. However, clotted blood was not routinely removed from the heart lumens prior to weighing the heart.

swine coronary arteries = experiment: Swine Coronary Artery Study: MIC catheter infusion after embolectomy or over-sized PTCA balloon trauma, morphometry at 4 weeks; assay type: in vivo
Description: Swine coronary arteries were also traumatized by embolectomy or over-sized PTCA balloon, and then 8-16 ml of cytochalasin B at 8.0 µg/ml was infused into the arterial wall with a MIC catheter to achieve a therapeutic dose. Controls included a diluent control and a traumatized untreated control, and all animals were sacrificed 4 weeks after intervention and coronary arteries were fixed by perfusion. Morphometry was performed on selected sections from proximal, treated and distal segments of coronary arteries (Table 15).
The diameter of, or the area within, the EEL of the artery can be compared to controls as an indicator of the degree of vascular remodeling. The lack of a statistically significant increase in luminal area may be due to increased sample variablility, increased neointimal formation, and/or increased degree of trauma.

left carotid artery [4] = experiment: Inter-arterial infusion of crystals after balloon trauma (scintillation, autoradiography, morphometry); assay type: in vivo, Sprague-Dawley rats; conditions: for present over the treated length of artery: 1 mg crystalline in 300 ml vehicle
Description: Another study employed twenty, male, Sprague-Dawley rats. The rats underwent balloon trauma to their left carotid artery, followed by inter-arterial infusion of a solution containing 1 mg crystalline cytochalasin B in […] vehicle (Hanks sterile salt solution with 0.5% Cremophor) or a diluent (saline) control. Animals were sacrificed immediately after infusion, and 2, 4, 7 and 14 days post-trauma and infusion. Post-sacrifice, the left and the right (control) carotid arteries were removed. Samples of arteries were obtained for quantitation of ^3H-cytochalasin B by oxidation and scintillation counting, histopathology, autoradiography and vascular morphometry. Histopathology documented uniform, circumferential balloon trauma in the arterial wall of the left carotid arteries.

[5] = tested on: Vascular smooth muscle cells; conditions: 1 µg/ml; an anti-migration/contraction effective dose
left carotid artery [6] = tested on: left carotid artery
[7] = tested on: Vascular smooth muscle cells (BO54); experiment: Scratch assay of smooth muscle cell migration; assay type: cell-based, baboon; set-up: key: - = no toxicity; +1 = minimal; +2 = mild; +3 = moderate; +4 = marked toxicity; conditions: Day 1/3/6/8/10 = r6/r8/r10/r12/r14
Description: Scratch assays to determine the extent of smooth muscle cell migration inhibition by cytochalasin B were performed in accordance with the following protocol: • Vascular smooth muscle cells (BO54) were derived from explants of baboon aortic smooth muscle, as described in Example 10. The cells were grown in flat bottom, six well tissue culture plates, which hold about 5 ml of medium. The vascular smooth muscle cells were plated at 200,000 cells/well and placed at 37°C in a humidified 5% CO2 incubator for 18 hours. The wells were then scratched with a sterile portion of a single edge razor blade that was held by clamp or pliers and was brought aseptically into contact with the bottom of the well at a 90° angle. The cells from a small area along the scratch were removed by a sterile cotton tipped applicator while the blade was in contact with the bottom of the well. After incubation, the presence of cells in the "scratched" area is indicative of cell migration across the scratch line.
Briefly, a stock solution of cytochalasin B (Sigma Chemical Co.) in dimethyl sulfoxide (DMSO) at 1 mg/ml was prepared. Test dilutions of cytochalasin B or control medium were added. Each experiment included two sets of plates: A set: Test agent exposure for 1, 3, 6, 8 and 10 days only; and B set: Test agent exposure for 1, 3, 6, 8 and 10 days, followed by a seven day recovery time with control medium. Both sets of plates were fixed (10% formalin in PBS) and stained (0.02% crystal violet) at the end of the timed exposures. Test concentrations for cytochalasin B were 1, 0.1 and 0.01 µg/ml, and a negative medium control was included. Fresh medium and drug were supplied 3 times per week.
In this Table, "M" indicates Migration Grade, wherein - = no migration; +1 = minimal; +2 = mild; +3 = moderate; and +4 = marked (maximum density; limit of cell contact inhibition) migration of vascular smooth muscle cells into the cleared area adjacent to the scratch. In this Table, "T" denotes a morphological Toxicity Grade, wherein - = no toxicity; +1 = minimal; +2 = mild; +3 = moderate; and +4 = marked toxicity. The migration results are expressed as "Grade in the Cleared Area of the Well / Grade in an Undisturbed Region of the Well." The toxicity values represent a grade for all cells in each well.

[8] = 8.0 µg/ml infused with MIC catheter after embolectomy or over-sized PTCA balloon trauma, sacrificed 4 weeks after intervention, mean
[9] = 8-16 ml at 8.0 µg/ml, 4 weeks after intervention

C=C1[C@@H](C)[C@H]2[C@H](Cc3ccccc3)NC(=O)[C@]23OC(=O)/C=C/[C@H](O)CCC[C@@H](C)C/C=C/[C@H]3[C@@H]1O [cytochalasin B]
BRDU labeling grade [1]: 4 (4 = > 10/HPF)
organ with the highest amount ([2]; 50 mg/kg i.p.): highest amount of cytochalasin B was found in the liver
remained in the peritoneal cavity or at the injection site ([2]; 50 mg/kg i.p.): About 75%
maximum tolerated dose ([2]; may be administered every second day): 50 mg/kg
only parameter which suggested an adverse effect [3]: elevation of the mean relative heart weight in treated female animals
Neointimal Area (swine coronary arteries; [8]): 1.56
luminal area (swine coronary arteries; [8]): 0.58
arterial area bounded by the external elastic lamina (swine coronary arteries; [9]): trend toward beneficial arterial remodeling
luminal area (swine coronary arteries; [9]): did not result in a statistically significant increase in luminal area
Arterial Area (swine coronary arteries; area bounded by external elastic lamina, 8.0 µg/ml infused with MIC catheter, sacrificed 4 weeks after intervention, mean): 1.80
neointima formation compared to diluent treated rats (left carotid artery [4]; crystalline, inter-arterial infusion): no statistically significant reduction in neointima formation
present over the treated length of artery (left carotid artery [4]; day 0): approximately 8 ug
present over the treated length of artery (left carotid artery [4]; day 2): less than 2 ng
cytotoxicity grade [5]: 1
morphometry compared to untreated control animals (left carotid artery [6]; 14 days, periadventitial crystals): no statistical difference from the controls
toxicity at the surgical site (left carotid artery [6]; periadventitial crystals: cytochalasin B 7.8 - 11.8 mg/rat, taxol 3.4 - 6.5 mg/rat): significant toxicity at the surgical site
morphological Toxicity Grade ([7]; 7-day Recovery Post Exposure, 0.01 µg/mL): -
morphological Toxicity Grade ([7]; 7-day Recovery Post Exposure, 0.1 µg/mL): -
morphological Toxicity Grade ([7]; Continuous Exposure, 0.1 µg/mL, listed as CY[…]): -
morphological Toxicity Grade ([7]; Continuous Exposure, 1.0 µg/mL, listed as CY[…]): +4
